How the values were obtained:
[1] = Circular dichroism of constrained peptide 3 and control peptide 1; type: physicochemical; settings: aqueous buffer and TFE solutions
Description: The structure of constrained peptide 3 was studied with circular dichroism (“CD”). CD studies on the constrained peptide 3 and the control peptide 1 in 30 mM phosphate buffer pH 7.0 were performed to obtain a quantitative measure of the helical content. […] The relative percent helicity of peptides can theoretically be measured by the mean residue ellipticity at 222 nm (Lyu et al., “Alpha-helix Stabilization by Natural and Unnatural Amino Acids with Alkyl Side Chains,” Proc. Nat'l Acad. Sci. 88:5317-5320 (1991), which is hereby incorporated by reference in its entirety), although these estimates are not typically accurate for short helices.
CD spectra were recorded on an AVIV 202SF CD spectrometer equipped with a temperature controller using 1 mm path length cells. The scan speed was set to 5 nm/min and spectra were averaged over 5 scans. Spectral baselines were obtained under analogous conditions as that for the samples. All spectra are baseline subtracted, converted to a uniform scale of molar ellipticity, and replotted. The helix content of each peptide was determined from the mean residue CD at 222 nm, [θ]222 (deg cm^2 dmol^−1) corrected for the number of amide bonds (Chin et al., Proc. Nat'l Acad. Sci. U.S.A., 99:15416-15421 (2002); Chen et al., Biochemistry, 11:4120-4131 (1972), which are hereby incorporated by reference in their entirety). […]

[2] = Circular dichroism of Bak BH3 peptides in 20% TFE/PBS; type: physicochemical; settings: 20% TFE in PBS, 50 μM, 25° C., Yang's method
Description: The α-helical conformation of constrained peptide 10a was determined by circular dichroism spectroscopy. […] The HBS α-helix 10a is roughly 46% helical as measured by Yang's method (Chen et al., Biochemistry, 11:4120-4131 (1972), which is hereby incorporated by reference in its entirety). […]
CD spectra were recorded on AVIV 202SF CD spectrometer equipped with a temperature controller using 1 mm length cells and a scan speed of 5 nm/min at 25° C. […] The helix content of each peptide was determined from the mean residue CD at 222 nm, [θ]222 (deg cm^2 dmol^−1) corrected for the number of amide bonds (Chen et al., Biochemistry 11:4120-4131 (1972), which is hereby incorporated by reference in its entirety). Percent helicity was calculated from ratio [θ]222/[θ]max, where [θ]max=−39500×[1−(2.57/n)]. The [θ]max for HBS α-helices is calculated to be −33155 for n=16 (number of amide bonds in the peptide).

Description for trypsin: At different time intervals, 100 μL of the above solution was taken out, quenched with 100 μL of 2% TFA aqueous solution, and then injected into reversed-phase HPLC to analyze the change in the area of the peptide peak compared to the area of internal control (tryptophan).

| CD spectrum [1] | proteolysis in the presence of trypsin (trypsin) | percent helicity [2] [%] | Compound |
| --- | --- | --- | --- |
| featureless spectrum |  |  | COC(=O)[C@@H](NC(=O)[C@@H](NC(=O)[C@@H](NC(=O)[C@@H](NC(=O)[C@@H](NC(=O)[C@@H](NC(=O)[C@@H](NC(=O)[C@H](NCC=O)NC(C)=O)N[C@@H](C=O)CCC(=O)O)N[C@@H](C)C=O)N[C@@H](C)C=O)N[C@@H](C)C=O)N[C@@H](C)C=O)N[C@@H](C=O)CCC(=O)O)N[C@@H](C)C=O [peptide 1] |
|  | rapid proteolysis | ~26 | CC[C@H](C)[C@H](NC(=O)[C@H](C)NC(=O)[C@H](CC(C)C)NC(=O)[C@H](CCC(N)=O)NC(=O)[C@H](CCCNC(=N)N)NC(=O)CNC(=O)[C@@H](NC(=O)[C@H](CCC(N)=O)NC(=O)CNC(C)=O)C(C)C)C(=O)N[C@H](C(=O)NCC(=O)N[C@@H](CC(=O)O)C(=O)N[C@@H](CC(=O)O)C(=O)N[C@H](C(=O)N[C@@H](CC(N)=O)C(=O)N[C@@H](CCCNC(=N)N)C(N)=O)[C@@H](C)CC)[C@@H](C)CC [peptide 9a] |

Source: US7705118B2, “Methods for preparing internally constrained peptides and peptidomimetics” (New York University, priority 2004, dated 2010)
